# In ChEMBL document CHEMBL5608246, “Membrane-Targeting Amphiphilic Honokiol Derivatives Containing an Oxazole Moiety as Potential Antibacterials against Methicillin-Resistant Staphylococcus aureus” (J Med Chem, 2024):
# Active and inactive are the calls of the source. No cut-off for these calls is given here.
# Key:
# Staphylococcus aureus [1] = assay: Antibacterial activity against methicillin resistant Staphylococcus aureus 20 infected in Kunming mouse skin abscess model assessed as reduction in TNF-alpha level at 5 to 10 mg/kg, sc measured after 2 hrs by ELISA; format: functional, organism-based; conditions: dose 5-10 mg/kg
# [2] = Toxicity in Kunming mouse assessed as change in white blood cell counts at 20 mg/kg, sc measured after 24 hrs; format: organism-based; conditions: in vivo
# Staphylococcus aureus [3] = assay: Antibacterial activity against methicillin resistant Staphylococcus aureus 20 infected in Kunming mouse skin abscess model assessed as reduction in inflammatory cell infiltration in subcutaneous layer at 10 mg/kg, sc measured after 2 hrs; format: functional, organism-based
# Staphylococcus aureus [4] = assay: Inhibition of methionine synthesis in methicillin resistant Staphylococcus aureus N315 at 4 ug/ml incubated for 4 hrs by RNA-sequencing analysis; format: functional, organism-based; conditions: dose 4.0 µg/ml
# Cell membrane [5] = assay: Induction of membrane permeability in methicillin resistant Staphylococcus aureus 20 at 16 to 64 ug/ml measured at 2 mins interval over 20 mins by SYTOX green staining based assay; conditions: dose 16-64 µg/ml
# Staphylococcus aureus [6] = assay: Antibacterial activity against methicillin resistant Staphylococcus aureus M23 incubated for 16 to 18 hrs by broth dilution method; format: functional; conditions: time 16-18 hrs
# Cell membrane [7] = assay: Induction of membrane disruption in methicillin resistant Staphylococcus aureus 20 assessed as viable cells with intact membrane at 32 ug/ml incubated for 2 hrs by SYTO9/PI staining based flow cytometry analysis (reference value: 98.7%); format: cell membranes; conditions: dose 32.0 µg/ml
# Cell membrane [8] = assay: Induction of membrane disruption in methicillin resistant Staphylococcus aureus 20 assessed as viable cells with intact membrane at 16 ug/ml incubated for 2 hrs by SYTO9/PI staining based flow cytometry analysis (reference value: 98.7%); format: cell membranes; conditions: dose 16.0 µg/ml
# Staphylococcus aureus [9] = assay: Upregulation of cwrA gene expression in methicillin resistant Staphylococcus aureus N315 at 4 ug/ml incubated for 4 hrs by RNA-sequencing analysis; format: functional; conditions: dose 4.0 µg/ml
# Staphylococcus aureus [10] = assay: Antibacterial activity against methicillin resistant Staphylococcus aureus M11 incubated for 16 to 18 hrs by broth dilution method; format: functional; conditions: time 16-18 hrs
# Cell membrane [11] = assay: Induction of membrane disruption in methicillin resistant Staphylococcus aureus 20 assessed as increase in intracellular ROS level incubated for 1 hr by DCFH-DA staining based analysis; format: cell membranes; conditions: dose 2-128 µg/ml
# Escherichia coli = assay: Antibacterial activity against Escherichia coli ATCC 25922 incubated for 16 to 18 hrs by broth dilution method; format: functional; conditions: time 16-18 hrs
# Staphylococcus aureus [12] = assay: Antibacterial activity against methicillin resistant Staphylococcus aureus 20 infected in Kunming mouse skin abscess model assessed as reduction in bacterial load at 5 mg/kg, sc measured after 2 hrs; format: functional; set-up: scale not given: the % may be the effect or the level left
# Cell membrane [13] = assay: Induction of membrane permeability in methicillin resistant Staphylococcus aureus 20 assessed as broken cell membrane by measuring increased fluorescence intensity at 32 ug/ml measured at 2 mins interval over 20 mins by SYTOX green staining based assay; format: cell membranes; conditions: dose 32.0 µg/ml
# [14] = Hemolytic activity in sheep RBC incubated for 1 hr; format: toxicity, cell-based, Ovis aries, Erythrocyte; conditions: sheep red blood cells (erythrocytes)
# Staphylococcus aureus [15] = assay: Downregulation of srtA gene expression in methicillin resistant Staphylococcus aureus N315 at 4 ug/ml incubated for 4 hrs by RNA-sequencing analysis; format: functional; conditions: dose 4.0 µg/ml
# [16] = Toxicity in Kunming mouse assessed as spleen abnormalities at 10 mg/kg, sc measured after 24 hrs; format: organism-based; conditions: in vivo
# [17] = Toxicity in Kunming mouse assessed as change in hemoglobin level at 20 mg/kg, sc measured after 24 hrs; format: organism-based; conditions: in vivo
# [18] = Selectivity index, ratio of HC50 for sheep RBC to MIC for Staphylococcus aureus ATCC 29213; format: toxicity; conditions: sheep red blood cells, read-out: Selectivity Index
# Staphylococcus aureus [19] = assay: Antibacterial activity against methicillin resistant Staphylococcus aureus M16 incubated for 16 to 18 hrs by broth dilution method; format: functional; conditions: time 16-18 hrs
# Staphylococcus aureus [20] = assay: Bactericidal activity against Staphylococcus aureus ATCC 29213 at 8 times MIC within 6 hrs by time kill assay; format: functional, organism-based
# [21] = Cytotoxicity against human L02 cells assessed as survival rate at 16 ug/ml incubated for 24 hrs by CCK8 assay; format: toxicity, cell-based; conditions: at 16 µg/mL, read-out: Survival
# Staphylococcus aureus [22] = assay: Inhibition of enzyme activity in methicillin resistant Staphylococcus aureus N315 at 4 ug/ml incubated for 4 hrs by RNA-sequencing analysis; format: functional, organism-based; conditions: dose 4.0 µg/ml
# Staphylococcus aureus [23] = assay: Antibacterial activity against methicillin resistant Staphylococcus aureus 20 incubated for 16 to 18 hrs in presence of 2 to 64 ug/ml cardiolipin by checkerboard broth dilution method; format: functional, organism-based; conditions: time 16-18 hrs
# Cell membrane [24] = assay: Induction of membrane disruption in methicillin resistant Staphylococcus aureus 20 assessed as intracellular protein leakage incubated for 4 hrs by microspectrophotometer analysis; format: cell membranes; conditions: dose 2-16 µg/ml
# Staphylococcus aureus [25] = assay: Antibacterial activity against methicillin resistant Staphylococcus aureus 20 infected in Kunming mouse skin abscess model assessed as reduction in IL-6 level at 5 to 10 mg/kg, sc measured after 2 hrs by ELISA; format: functional, organism-based; conditions: dose 5-10 mg/kg
# [26] = Toxicity in Kunming mouse assessed as change in creatinine level at 20 mg/kg, sc measured after 24 hrs; format: organism-based; conditions: in vivo
# Staphylococcus aureus [27] = assay: Inhibition of proline synthesis in methicillin resistant Staphylococcus aureus N315 at 4 ug/ml incubated for 4 hrs by RNA-sequencing analysis; format: functional, organism-based; conditions: dose 4.0 µg/ml
# Staphylococcus aureus [28] = assay: Effect on ABC transporter protein gene expression in methicillin resistant Staphylococcus aureus N315 at 4 ug/ml incubated for 4 hrs by RNA-sequencing analysis; format: functional; conditions: dose 4.0 µg/ml
# Staphylococcus aureus [29] = assay: Antibacterial activity against methicillin resistant Staphylococcus aureus 20 infected in Kunming mouse skin abscess model assessed as reduction in abscess size at 5 mg/kg, sc measured after 2 hrs; format: functional, organism-based
# Staphylococcus aureus [30] = assay: Antibacterial activity against methicillin resistant Staphylococcus aureus 20 incubated for 16 to 18 hrs in presence of 2 to 64 ug/ml phosphatidylglycerol by checkerboard broth dilution method; format: functional, organism-based; conditions: time 16-18 hrs
# [31] = Toxicity in Kunming mouse skin abscess model infected with methicillin resistant Staphylococcus aureus assessed as lung damage at 5 to 10 mg/kg, sc measured after 2 hrs by H and E staining based assay; format: organism-based; conditions: in vivo, dose 5-10 mg/kg
# Cell membrane [32] = assay: Induction of membrane disruption in methicillin resistant Staphylococcus aureus 20 assessed as viable cells with intact membrane at 128 ug/ml incubated for 2 hrs by SYTO9/PI staining based flow cytometry analysis (reference value: 98.7%); format: cell membranes; conditions: dose 128.0 µg/ml
# Staphylococcus aureus [33] = assay: Antibacterial activity against methicillin resistant Staphylococcus aureus 20 incubated for 16 to 18 hrs in presence of 32 ug/ml phosphatidylglycerol by checkerboard broth dilution method; format: functional; conditions: time 16-18 hrs
# Staphylococcus aureus [34] = assay: Inhibition of protein synthesis in methicillin resistant Staphylococcus aureus N315 at 4 ug/ml incubated for 4 hrs by RNA-sequencing analysis; format: functional, organism-based; conditions: dose 4.0 µg/ml
# Cell membrane [35] = assay: Induction of membrane disruption in methicillin resistant Staphylococcus aureus 20 assessed as viable cells with intact membrane at 64 ug/ml incubated for 2 hrs by SYTO9/PI staining based flow cytometry analysis (reference value: 98.7%); format: cell membranes; conditions: dose 64.0 µg/ml
# Staphylococcus aureus [36] = assay: Inhibition of DNA replication in methicillin resistant Staphylococcus aureus N315 at 4 ug/ml incubated for 4 hrs by RNA-sequencing analysis; format: functional, organism-based; conditions: dose 4.0 µg/ml
# Staphylococcus aureus [37] = assay: Antibacterial activity against methicillin resistant Staphylococcus aureus 20 incubated for 16 to 18 hrs in presence of 32 ug/ml cardiolipin by checkerboard broth dilution method; format: functional; conditions: time 16-18 hrs
compound,measurement,setting,value
C=CCc1cc(-c2ccc(OCCC[N+](C)(C)CC(=O)NCCCC)c(CC=C)c2)c2oc(-c3c(Cl)cccc3Cl)nc2c1.[Br-],Activity,Staphylococcus aureus [1],Active
same,Activity,[2],Non-Toxic
same,Activity,Staphylococcus aureus [3],Active
same,inhibition,Staphylococcus aureus [4],Active
same,Activity,Cell membrane [5],Active
same,MIC,Staphylococcus aureus [6],4 µg/mL
same,Activity,Cell membrane [7],0.33%
same,Activity,Cell membrane [8],0.17%
same,Activity,Staphylococcus aureus [9],Active
same,MIC,Staphylococcus aureus [10],4 µg/mL
same,Activity,Cell membrane [11],Dose-Dependent Effect
same,MIC,Escherichia coli,128 µg/mL
same,Activity,Staphylococcus aureus [12],96.54%
same,Activity,Cell membrane [13],Active
same,HC50 at 1 h,[14],218 µg/mL
same,Activity,Staphylococcus aureus [15],Active
same,Activity,[16],Non-Toxic
same,Activity,[17],Non-Toxic
same,selectivity ratio,[18],54.5
same,MIC,Staphylococcus aureus [19],2 µg/mL
same,Activity,Staphylococcus aureus [20],Active
same,"viability at 24 h, 16 ug/ml",[21],75%
same,Activity,Staphylococcus aureus [22],Active
same,Activity,Staphylococcus aureus [23],inactive
same,Activity,Cell membrane [24],Dose-Dependent Effect
same,Activity,Staphylococcus aureus [25],Active
same,Activity,[26],Non-Toxic
same,inhibition,Staphylococcus aureus [27],Active
same,Activity,Staphylococcus aureus [28],Active
same,Activity,Staphylococcus aureus [29],Active
same,Activity,Staphylococcus aureus [30],inactive
same,Activity,[31],Non-Toxic
same,Activity,Cell membrane [32],0%
same,MIC,Staphylococcus aureus [33],32 µg/mL
same,inhibition,Staphylococcus aureus [34],Active
same,Activity,Cell membrane [35],0.28%
same,inhibition,Staphylococcus aureus [36],Active
same,MIC,Staphylococcus aureus [37],32 µg/mL
